Inconclusive results and toxic doses are left out. How the source made its calls: active means survival T/C of 150% or more; inactive means T/C below 125% in these data.
System: BDF1 mice, P388 leukemia ip, median survival T/C
Test: NCI In Vivo Anticancer Drug Screen. Data for tumor model P388 Leukemia (intraperitoneal) in B6D2F1 (BDF1) mice
Conditions: endpoint: median survival time, higher = longer survival
Method in brief: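 Vehicle-dosed animals serve as the reference; survival of compound-dosed, tumour-implanted mice is divided by it.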

[1] = dose: 50.0 mg/kg/injection, schedule: Q01DX009 (ip), vehicle: saline with Tween-80
[2] = dose: 100.0 mg/kg/injection, schedule: Q01DX009 (ip), vehicle: saline with Tween-80
[3] = dose: 200.0 mg/kg/injection, schedule: Q01DX009 (ip), vehicle: saline with Tween-80
[4] = dose: 25.0 mg/kg/injection, schedule: Q01DX009 (ip), vehicle: Klucel (hydroxypropylcellulose) (HPC)
[5] = dose: 50.0 mg/kg/injection, schedule: Q01DX009 (ip), vehicle: Klucel (hydroxypropylcellulose) (HPC)
[6] = dose: 25.0 mg/kg/injection, schedule: Q01DX009 (ip), vehicle: saline
[7] = dose: 50.0 mg/kg/injection, schedule: Q01DX009 (ip), vehicle: saline
[8] = dose: 50.0 mg/kg/injection, schedule: Q04DX003 (ip), vehicle: saline
[9] = dose: 100.0 mg/kg/injection, schedule: Q01DX009 (ip), vehicle: saline
[10] = dose: 100.0 mg/kg/injection, schedule: Q01DX009 (ip), vehicle: Klucel (hydroxypropylcellulose) (HPC)
[11] = dose: 100.0 mg/kg/injection, schedule: Q04DX003 (ip), vehicle: Klucel (hydroxypropylcellulose) (HPC)
[12] = dose: 200.0 mg/kg/injection, schedule: Q04DX003 (ip), vehicle: Klucel (hydroxypropylcellulose) (HPC)
[13] = dose: 400.0 mg/kg/injection, schedule: Q01DX009 (ip), vehicle: saline with Tween-80

Measured: T/C

CC1(C)O[Se](=O)OC1(C)C
inactive: dose: 6.25 mg/kg/injection, schedule: Q04DX003 (ip), vehicle: saline 100 % of control

COCCn1c2c(n/c(=C(\O)OC)c1=N)CCCC=2
inactive: [1] 106 % of control | [2] 116 % of control | [3] 97 % of control

Cc1ccc(NC(=O)NCC2(C)CC(NC(=O)Nc3ccc(C)cc3)CC(C)(C)C2)cc1 (centres undefined)
inactive: dose: 12.5 mg/kg/injection, schedule: Q01DX009 (ip), vehicle: Klucel (hydroxypropylcellulose) (HPC) 100 % of control | [4] 100 % of control | [5] 100 % of control | dose: 75.0 mg/kg/injection, schedule: Q01DX009 (ip), vehicle: Klucel (hydroxypropylcellulose) (HPC) 90 % of control | dose: 115.0 mg/kg/injection, schedule: Q01DX009 (ip), vehicle: Klucel (hydroxypropylcellulose) (HPC) 90 % of control | dose: 170.0 mg/kg/injection, schedule: Q01DX009 (ip), vehicle: Klucel (hydroxypropylcellulose) (HPC) 90 % of control

CCCC(N=Cc1ccccc1O)C(=O)O.CCCC(N=Cc1ccccc1O)C(=O)O.[Fe] (centres undefined)
inactive: dose: 12.5 mg/kg/injection, schedule: Q01DX009 (ip), vehicle: saline 86 % of control | [6] 90 % of control | [7] 90 % of control | [8] 90 % of control

CCOC(=O)c1cc(C(=O)OCC)c(=O)oc1OCC
inactive: [6] 118 % of control | [7] 104 % of control | [9] 118 % of control

C(=N\C(/N=C/c1ccccc1)c1ccccc1)/c1ccccc1
inactive: [10] 91 % of control | [11] 100 % of control | [12] 95 % of control | dose: 400.0 mg/kg/injection, schedule: Q01DX009 (ip), vehicle: Klucel (hydroxypropylcellulose) (HPC) 87 % of control | dose: 400.0 mg/kg/injection, schedule: Q04DX003 (ip), vehicle: Klucel (hydroxypropylcellulose) (HPC) 100 % of control

CN(C)c1ccc(C(=O)c2ccccc2)cc1
inactive: [4] 104 % of control | [5] 90 % of control | [10] 95 % of control

C#CCOC1CCCCO1 (centres undefined)
inactive: [6] 90 % of control | [7] 100 % of control | [9] 100 % of control

N/C(=N\Cl)C(Cl)(Cl)Cl
inactive: dose: 12.5 mg/kg/injection, schedule: Q04DX003 (ip), vehicle: saline 109 % of control | dose: 25.0 mg/kg/injection, schedule: Q04DX003 (ip), vehicle: saline 118 % of control | dose: 33.0 mg/kg/injection, schedule: Q04DX003 (ip), vehicle: saline 118 % of control | dose: 37.5 mg/kg/injection, schedule: Q01DX009 (ip), vehicle: saline 118 % of control | [8] 118 % of control | dose: 75.0 mg/kg/injection, schedule: Q04DX003 (ip), vehicle: saline 118 % of control
active: [6] 150 % of control

c1cc[c]([Sn]([S][Sn]([c]2ccccc2)([c]2ccccc2)[c]2ccccc2)([c]2ccccc2)[c]2ccccc2)cc1
inactive: [1] 98 % of control | [2] 93 % of control | [3] 114 % of control | [13] 86 % of control

CCCCCCC(=O)CC(SCC)c1ccc(Cl)cc1 (centres undefined)
inactive: [1] 98 % of control | [2] 102 % of control | [3] 112 % of control

CC(C)c1ncc([N+](=O)[O-])n1C
inactive: [2] 100 % of control | [3] 87 % of control | [13] 100 % of control

COC(CC(C)CCCC(C)(C)O)OC (centres undefined)
inactive: [5] 110 % of control | [10] 110 % of control | [11] 100 % of control | dose: 200.0 mg/kg/injection, schedule: Q01DX009 (ip), vehicle: Klucel (hydroxypropylcellulose) (HPC) 110 % of control | [12] 112 % of control

CNNCc1ccc(/C=N/NC(N)=S)cc1
inactive: dose: 6.25 mg/kg/injection, schedule: Q01DX009 (ip), vehicle: water 106 % of control | dose: 12.5 mg/kg/injection, schedule: Q01DX009 (ip), vehicle: water 114 % of control | dose: 25.0 mg/kg/injection, schedule: Q01DX009 (ip), vehicle: water 92 % of control | dose: 50.0 mg/kg/injection, schedule: Q01DX009 (ip), vehicle: water 92 % of control

— PubChem BioAssay AID328 (DTP/NCI, 2004)
